Values joined by “and” are separate entries in the source; they are usually repeats but may differ in a detail not shown here. Equal values may be shown once. Inconclusive results and toxic doses are left out. The calls were made as follows: active = survival T/C of 150% or more; inactive = T/C below 125% in these data.
System: CD2F1 mice, L1210 leukemia ip, survival T/C
Experiment: NCI In Vivo Anticancer Drug Screen. Data for tumor model L1210 Leukemia (intraperitoneal) in CD2F1 (CDF1) mice
Settings: higher = longer survival
Outline: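 Antitumor effect is scored in animals hosting a serially transplanted tumor. Values compare compound-dosed animals against vehicle-only controls as a simple quotient.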

[1] = endpoint: mean survival time, dose: 100.0 mg/kg/injection, schedule: Q01DX001 (ip), vehicle: saline with Tween-80
[2] = endpoint: mean survival time, dose: 200.0 mg/kg/injection, schedule: Q01DX001 (ip), vehicle: saline with Tween-80
[3] = endpoint: mean survival time, dose: 400.0 mg/kg/injection, schedule: Q01DX001 (ip), vehicle: saline with Tween-80
[4] = endpoint: mean survival time, dose: 100.0 mg/kg/injection, schedule: Q01DX009 (ip), vehicle: saline with Tween-80
[5] = endpoint: mean survival time, dose: 100.0 mg/kg/injection, schedule: Q04DX003 (ip), vehicle: saline with Tween-80
[6] = endpoint: mean survival time, dose: 200.0 mg/kg/injection, schedule: Q01DX009 (ip), vehicle: saline with Tween-80
[7] = endpoint: mean survival time, dose: 200.0 mg/kg/injection, schedule: Q04DX003 (ip), vehicle: saline with Tween-80
[8] = endpoint: mean survival time, dose: 400.0 mg/kg/injection, schedule: Q01DX009 (ip), vehicle: saline with Tween-80
[9] = endpoint: mean survival time, dose: 400.0 mg/kg/injection, schedule: Q04DX003 (ip), vehicle: saline with Tween-80
[10] = endpoint: mean survival time, dose: 12.5 mg/kg/injection, schedule: Q01DX009 (ip), vehicle: saline with Tween-80
[11] = endpoint: mean survival time, dose: 25.0 mg/kg/injection, schedule: Q01DX009 (ip), vehicle: saline with Tween-80
[12] = endpoint: mean survival time, dose: 50.0 mg/kg/injection, schedule: Q01DX009 (ip), vehicle: saline with Tween-80
[13] = endpoint: mean survival time, dose: 25.0 mg/kg/injection, schedule: Q01DX001 (ip), vehicle: saline with Tween-80
[14] = endpoint: mean survival time, dose: 50.0 mg/kg/injection, schedule: Q01DX001 (ip), vehicle: saline with Tween-80

Measured: T/C

[NH-]C(CCC(N)=O)C(=O)O.[NH-]C(CCC(N)=O)C(=O)O.[Pt+2] (configuration not stated)
inactive: endpoint: mean survival time, dose: 3.13 mg/kg/injection, schedule: Q04DX003 (ip), vehicle: distilled water + Tween-80 103 % of control | endpoint: mean survival time, dose: 6.25 mg/kg/injection, schedule: Q04DX003 (ip), vehicle: distilled water + Tween-80 104 % of control | endpoint: mean survival time, dose: 12.5 mg/kg/injection, schedule: Q04DX003 (ip), vehicle: distilled water + Tween-80 110 % of control | endpoint: mean survival time, dose: 25.0 mg/kg/injection, schedule: Q04DX003 (ip), vehicle: distilled water + Tween-80 110 % of control | endpoint: mean survival time, dose: 50.0 mg/kg/injection, schedule: Q04DX003 (ip), vehicle: distilled water + Tween-80 95 % of control | endpoint: mean survival time, dose: 100.0 mg/kg/injection, schedule: Q04DX003 (ip), vehicle: distilled water + Tween-80 104 % of control | endpoint: mean survival time, dose: 200.0 mg/kg/injection, schedule: Q04DX003 (ip), vehicle: distilled water + Tween-80 98 % of control

CC(C)(CO)Nc1ccc([N+](=O)[O-])cc1
inactive: [1] 104 % of control | [2] 106 % of control | [3] 107 % of control

CN(C)CCc1ccc(O)cc1
inactive: endpoint: mean survival time, dose: 25.0 mg/kg/injection, schedule: Q01DX001 (ip), vehicle: saline 103 % of control | endpoint: mean survival time, dose: 50.0 mg/kg/injection, schedule: Q01DX001 (ip), vehicle: saline 105 % of control | endpoint: mean survival time, dose: 100.0 mg/kg/injection, schedule: Q01DX001 (ip), vehicle: saline 98 % of control and 100 % of control | [4] 97 % of control | [5] 102 % of control | [6] 102 % of control | [7] 96 % of control | [8] 101 % of control | [9] 104 % of control

[O-][n+]1c(Cl)nc(Cl)c(Cl)c1C(Cl)(Cl)Cl
inactive: endpoint: mean survival time, dose: 12.5 mg/kg/injection, schedule: Q04DX003 (ip), vehicle: other 111 % of control | endpoint: mean survival time, dose: 25.0 mg/kg/injection, schedule: Q04DX003 (ip), vehicle: other 103 % of control

CCOC(=O)C1CC(=O)C(C(=O)OCC)CC1=O (configuration not stated)
inactive: [4] 100 % of control | endpoint: mean survival time, dose: 100.0 mg/kg/injection, schedule: Q04DX002 (ip), vehicle: saline with Tween-80 107 % of control | [5] 100 % of control | [6] 97 % of control | endpoint: mean survival time, dose: 200.0 mg/kg/injection, schedule: Q04DX002 (ip), vehicle: saline with Tween-80 98 % of control | [7] 93 % of control | [8] 97 % of control | endpoint: mean survival time, dose: 400.0 mg/kg/injection, schedule: Q04DX002 (ip), vehicle: saline with Tween-80 102 % of control | [9] 98 % of control

[Br][Pt+2][Br].[NH-]C(c1ccccc1)C([NH-])c1ccccc1 (configuration not stated)
inactive: endpoint: mean survival time, dose: 12.5 mg/kg/injection, schedule: Q04DX003 (ip), vehicle: saline with Tween-80 109 % of control and 119 % of control | endpoint: mean survival time, dose: 25.0 mg/kg/injection, schedule: Q04DX003 (ip), vehicle: saline with Tween-80 107 % of control and 109 % of control | endpoint: mean survival time, dose: 50.0 mg/kg/injection, schedule: Q04DX003 (ip), vehicle: saline with Tween-80 109 % of control

COc1cc(Cl)ccc1NC(=O)N1CCN(c2ccccc2)CC1
inactive: [10] 96 % of control | [11] 96 % of control | [12] 92 % of control and 93 % of control | [6] 86 % of control

[Cl][Pt+2][Cl].[NH-]Nc1nc2ccccc2s1.[NH-]Nc1nc2ccccc2s1
inactive: endpoint: mean survival time, dose: 5.0 mg/kg/injection, schedule: Q04DX003 (ip), vehicle: saline with Tween-80 102 % of control | endpoint: mean survival time, dose: 10.0 mg/kg/injection, schedule: Q04DX003 (ip), vehicle: saline with Tween-80 98 % of control | endpoint: mean survival time, dose: 20.0 mg/kg/injection, schedule: Q04DX003 (ip), vehicle: saline with Tween-80 94 % of control | endpoint: mean survival time, dose: 40.0 mg/kg/injection, schedule: Q04DX003 (ip), vehicle: saline with Tween-80 98 % of control | endpoint: mean survival time, dose: 80.0 mg/kg/injection, schedule: Q04DX003 (ip), vehicle: saline with Tween-80 94 % of control

O=C1COC(=O)N1
inactive: [5] 107 % of control | [7] 94 % of control | [9] 96 % of control

CC(C)(CO)COS(=O)(=O)c1ccc(Br)cc1
inactive: [10] 95 % of control | [11] 95 % of control | [12] 95 % of control

CC(C)c1nc(CCl)c(CCl)n1Cc1ccccc1
inactive: endpoint: mean survival time, dose: 50.0 mg/kg/injection, schedule: Q01DX009 (ip), vehicle: Klucel (hydroxypropylcellulose) (HPC) 97 % of control | endpoint: mean survival time, dose: 100.0 mg/kg/injection, schedule: Q01DX009 (ip), vehicle: Klucel (hydroxypropylcellulose) (HPC) 94 % of control | endpoint: mean survival time, dose: 200.0 mg/kg/injection, schedule: Q01DX009 (ip), vehicle: Klucel (hydroxypropylcellulose) (HPC) 90 % of control

CC(C)Oc1ccc2c(c1)Sc1ccc(Cl)cc1N2
inactive: [5] 93 % of control | [7] 96 % of control | [9] 102 % of control

COc1ccc2[nH]c3c(c2c1)CSc1ccccc1-3
inactive: endpoint: mean survival time, dose: 100.0 mg/kg/injection, schedule: Q04DX003 (ip), vehicle: acetone 94 % of control | endpoint: mean survival time, dose: 200.0 mg/kg/injection, schedule: Q04DX003 (ip), vehicle: acetone 105 % of control | endpoint: mean survival time, dose: 400.0 mg/kg/injection, schedule: Q04DX003 (ip), vehicle: acetone 100 % of control

O=Cc1cc(=O)n2c3c(cccc13)CCC2
inactive: endpoint: mean survival time, dose: 100.0 mg/kg/injection, schedule: Q04DX003 (ip), vehicle: saline 98 % of control | endpoint: mean survival time, dose: 200.0 mg/kg/injection, schedule: Q04DX003 (ip), vehicle: saline 98 % of control

COC(=O)c1ccc(C(=O)CC(=O)c2ccccc2)cc1
inactive: endpoint: median survival time, dose: 25.0 mg/kg/injection, schedule: Q04DX003 (ip), vehicle: saline with Tween-80 100 % of control | endpoint: median survival time, dose: 50.0 mg/kg/injection, schedule: Q04DX003 (ip), vehicle: saline with Tween-80 88 % of control | endpoint: median survival time, dose: 100.0 mg/kg/injection, schedule: Q04DX003 (ip), vehicle: saline with Tween-80 88 % of control | endpoint: median survival time, dose: 200.0 mg/kg/injection, schedule: Q04DX003 (ip), vehicle: saline with Tween-80 88 % of control

CC(C)CC#N
inactive: [4] 100 % of control | [5] 101 % of control | [7] 104 % of control | [9] 104 % of control

Nc1nnc(Cl)s1
inactive: [1] 108 % of control | [2] 104 % of control | [3] 97 % of control

COc1ccc(-c2nccc3cc(OC)c(OC)cc23)cc1OC
inactive: endpoint: mean survival time, dose: 12.5 mg/kg/injection, schedule: Q01DX009 (ip), vehicle: water 95 % of control | endpoint: mean survival time, dose: 25.0 mg/kg/injection, schedule: Q01DX009 (ip), vehicle: water 95 % of control | endpoint: mean survival time, dose: 50.0 mg/kg/injection, schedule: Q01DX009 (ip), vehicle: water 103 % of control

Nc1nc2c(ncn2-c2ccccc2F)c(=O)[nH]1
inactive: [13] 102 % of control | [14] 106 % of control | [1] 94 % of control and 98 % of control

NCCSSCC(N)C(=O)O (configuration not stated)
inactive: [5] 106 % of control | [7] 103 % of control | [9] 94 % of control

CC(C)(C)C1=CC(=N/S(=O)(=O)c2ccccc2)/C(N=[N+]=[N-])=C(Cl)C/1=N\S(=O)(=O)c1ccccc1
inactive: [13] 101 % of control | [14] 93 % of control | [1] 93 % of control | [2] 95 % of control | [3] 100 % of control

CC1=NC(C#N)=C(C#N)N=C(C)C1
inactive: endpoint: mean survival time, dose: 10.0 mg/kg/injection, schedule: Q04DX003 (ip), vehicle: Klucel (hydroxypropylcellulose) (HPC) 102 % of control | endpoint: mean survival time, dose: 20.0 mg/kg/injection, schedule: Q04DX003 (ip), vehicle: Klucel (hydroxypropylcellulose) (HPC) 98 % of control | endpoint: mean survival time, dose: 40.0 mg/kg/injection, schedule: Q04DX003 (ip), vehicle: Klucel (hydroxypropylcellulose) (HPC) 106 % of control

CC(=O)OCC1OC(N2C(=O)/C(=C/c3ccc(Cl)cc3)SC2=S)C(OC(C)=O)C(OC(C)=O)C1OC(C)=O (configuration not stated)
inactive: endpoint: mean survival time, dose: 3.13 mg/kg/injection, schedule: Q01DX005 (ip), vehicle: distilled water + Tween-80 102 % of control | endpoint: mean survival time, dose: 6.25 mg/kg/injection, schedule: Q01DX005 (ip), vehicle: distilled water + Tween-80 96 % of control | endpoint: mean survival time, dose: 12.5 mg/kg/injection, schedule: Q01DX005 (ip), vehicle: distilled water + Tween-80 106 % of control | endpoint: mean survival time, dose: 25.0 mg/kg/injection, schedule: Q01DX005 (ip), vehicle: distilled water + Tween-80 95 % of control

COc1ccc(-c2ccc(-c3ccc(S(=O)(=O)c4ccc(-c5ccc(-c6ccc(OC)cc6)cc5)c(N)c4)cc3N)cc2)cc1
inactive: [4] 110 % of control | [6] 89 % of control | [8] 89 % of control

O=C(O)c1ccccc1Oc1ccccc1C(=O)O
inactive: endpoint: mean survival time, dose: 100.0 mg/kg/injection, schedule: Q01DX009 (ip), vehicle: saline 101 % of control | endpoint: mean survival time, dose: 200.0 mg/kg/injection, schedule: Q01DX009 (ip), vehicle: saline 101 % of control | endpoint: mean survival time, dose: 400.0 mg/kg/injection, schedule: Q01DX009 (ip), vehicle: saline 94 % of control
